Measurements taken from patent US8785424B2, “ngCycloartanone derivatives with anticancer activity” (Pierre Fabre Medicament, priority 2009, dated 2014).
Structures can show the parent of a compound that is named as a salt.

System: proteasome
Assay: Cellular proteasome inhibition test: accumulation of 4Ub-Luc reporter (luciferase activity) in DLD-1 4Ub-Luc cell line
Format: cell-based, human
Settings: DLD-1 4Ub-Luc cells; for relative induction factor (IF % luminescence) versus epoxomicin: 8 hours, epoxomicin = 100%
Experimental: Biological tests were carried out according to protocols described in the following articles: Ausseil F. et al. J. Biomol Screen. 2007, 12, 106-116 and Vandenberghe I. et al. Biochemical Pharmacology 2008, 76, 453-462.
In order to select novel proteasome inhibitor compounds, it is necessary to indirectly measure the activity of this proteasome within cells. To this end, we constructed a stable cell line, DLD-1 4Ub-Luc, arising from a human colon cancer cell line, which produces a chimeric reporter protein called 4Ub-Luc. This protein is a fusion between a 4-ubiquitin (4Ub) label and luciferase (Luc). This label is capable to direct every proteins that carry it toward the proteasome. The 4Ub-Luc protein is thus efficiently degraded by the proteasome, in contrast to the “wild” non-fused Luc protein. When the DLD-1 4Ub-Luc cell line is treated with a proteasome inhibitor, the fusion protein is much less efficiently degraded and accumulates in the cell. This accumulation is detected by an increase in luciferase activity in the treated extract compared to the extract from untreated cells. The control consists of verifying that the inhibitor has no effect on accumulation of the wild Luc protein produced by the stable DLD-1 RF cell line. For both cell lines and for each product an induction factor is determined for the product tested (or the reference) corresponding to the ratio between the luciferase activities measured in cells treated with this product (or the reference) and cells treated with solvent alone.
The product's activity is then defined by its relative induction factor, i.e., the ratio of its induction factor (IF % luminescence) to that of the reference molecule epoxomicin (IF=100%; see data presented in the table below).
Thus, the test established by Pierre-Fabre is a cellular test that has the advantage, compared to a purely enzymatic test, of detecting only products capable of penetrating the cell.
Two cell lines are used for this test: DLD-1 RF and DLD-1 4Ub-Luc. The culture medium used is as follows: • MEM • 5% fetal calf serum • 5 ml of penicillin-streptomycin • 2.5 ml of FUNGIZONE® (Amphotericin B) • 10 ml of […]
Day 1: Inoculate white 96-well culture-treated plates (PerkinElmer White ViewPlate, product no. 6005181) with 100 μl of 1·10^5 c/ml cell suspension per well. Incubate for 24 hours so that the cells adhere. On each plate five columns will be inoculated with DLD-1 4Ub-Luc and five others with DLD-1 RF according to diagram 1 below.
Day 2: Remove the medium by turning the plates upside down on cotton, and then carry out the treatment with the compounds of the invention, with solvent alone or with a reference compound such as epoxomicin. […]
The columns are paired (examples 2 and 8, 3 and 9, 4 and 10 and 5 and 11) and treated with the same compound. Columns 6 and 7 receive the experimental control, namely 0.1% DMSO in culture medium for wells B, C, D, and E of columns 6 and 7, and the positive control (10^−7 M epoxomicin) in wells F and G.
After incubation, turn the plate upside down on cotton to empty the wells, rinse with 50 μl of PBS to remove any trace of the cytotoxin tested and then add 50 μl of 5× passive lysis buffer (Promega, product no. E1941) diluted to ⅕ in water. Shake energetically using a plate shaker for 5 to 10 minutes at room temperature before freezing at −20° C.
Luciferase activity is measured using a Luciferase Assay System 10-Pack kit (Promega, product no. E1501).
On the day luciferase activity is to be measured, defrost the plates and wait until they have returned to room temperature. The optimal temperature for luciferase activity is 20-25° C.
Reconstitute the firefly luciferase substrate by defrosting the buffer and then adding 10 ml of buffer to the bottle containing the freeze-dried substrate. Wait until the solution is at room temperature before beginning the assay. […]

[1] = concentration tested 5 · 10^−6 M
[2] = concentration tested 5 · 10^−7 M

Row | SMILES | relative induction factor (IF % luminescence) versus epoxomicin [1] [%] | relative induction factor (IF % luminescence) versus epoxomicin (concentration tested 10^−5 M) [%] | relative induction factor (IF % luminescence) versus epoxomicin (concentration tested 10^−6 M) [%] | relative induction factor (IF % luminescence) versus epoxomicin [2] [%] | induction factor of the reference (IF % luminescence) (reference molecule at 10^−7 M, set to IF=100%) [%]
1 | C=C(C(=O)[C@H](OC(C)=O)[C@@H](C)[C@H]1[C@@H](OC(C)=O)C[C@@]2(C)C3CCC4[C@H](C)C(=O)C=C[C@@]45C[C@@]35CC[C@]12C)[C@@H](C)COC(=O)CNC(=O)OC(C)(C)C (some centres unmarked) [Compound 56, Neoboutomellerone 26-N-Boc-glycinate] | 34 | 7 | 21 | – | –
2 | C=C(C(=O)[C@H](OC(C)=O)[C@@H](C)[C@H]1[C@@H](OC(C)=O)C[C@@]2(C)[C@@H]3CC[C@H]4[C@H](C)/C(=N/NC(N)=O)C=C[C@@]45C[C@@]35CC[C@]12C)[C@@H](C)CO [Compound 35, 3-semicarbazone-neoboutomellerone] | 99 | 30 | 1 | – | –
3 | C=C(C(=O)[C@H](O)[C@@H](C)[C@H]1[C@@H](OC(C)=O)C[C@@]2(C)C3CCC4[C@H](C)C(=O)C=C[C@@]45C[C@@]35CC[C@]12C)[C@@H](C)COC(=O)CCC(=O)O (some centres unmarked) [Compound 71, 26-succinate-22-deacetyl-neoboutomellerone] | 11 | 4 | 62 | 6 | –
4 | CC[C@H](C)[C@H](NC(=O)[C@H]([C@@H](C)CC)N(C)C(C)=O)C(=O)N[C@H](C(=O)N[C@@H](CC(C)C)C(=O)[C@@]1(C)CO1)[C@@H](C)O [epoxomicin, reference compound] | – | – | – | – | 100
5 | C=C(C(=O)[C@H](OC(C)=O)[C@@H](C)[C@H]1[C@@H](OC(C)=O)C[C@@]2(C)C3CCC4[C@H](C)C(=O)C=C[C@@]45C[C@@]35CC[C@]12C)[C@@H](C)COC(=O)CN(C)C (some centres unmarked) [Compound 62, Neoboutomellerone 26-N-dimethyl glycinate] | 49 | 7 | 11 | – | –
6 | C=C(C(=O)[C@H](OC(C)=O)[C@@H](C)[C@H]1[C@@H](OC(C)=O)C[C@@]2(C)C3CCC4C(C)C(=O)C=CC45CC35CC[C@]12C)[C@@H](C)CO (stereo partly drawn) [Compound 4, Diastereoisomer of Ring A of Neoboutomellerone] | 84 | 24 | 2 | – | –
7 | C=C(C(=O)[C@H](OC(C)=O)[C@@H](C)[C@H]1[C@@H](OC(C)=O)C[C@@]2(C)[C@@H]3CC[C@H]4[C@H](C)C(=O)C=C[C@@]45C[C@@]35CC[C@]12C)[C@@H](C)COP(=O)(O)O [Compound 90, 26-phosphate-neoboutomellerone N-methyl Glutamine Salt] | 4 | 51 | 1 | – | –
8 | C=C(C(=O)[C@H](O)[C@@H](C)[C@H]1[C@@H](OC(C)=O)C[C@@]2(C)[C@@H]3CC[C@H]4[C@H](C)C(=O)C=C[C@@]45C[C@@]35CC[C@]12C)[C@@H](C)COC(=O)Nc1ccc(N(C)C)cc1 [Compound 26, 26-N-(4-N,N-dimethylaniline)carbamate-22-deacetyl-neoboutomellerone] | 54 | 37 | 53 | 11 | –
9 | C=C(C(=O)[C@H](OC(C)=O)[C@@H](C)[C@H]1[C@@H](OC(C)=O)C[C@@]2(C)[C@@H]3CC[C@H]4[C@H](C)/C(=N/O)C=C[C@@]45C[C@@]35CC[C@]12C)[C@@H](C)CO [Compound 27, 3-anti-oxime-neoboutomellerone] | 103 | – | 1 | 1 | –
10 | C=C(C(=O)[C@H](O)[C@@H](C)[C@H]1[C@@H](OC(C)=O)C[C@@]2(C)[C@@H]3CC[C@H]4[C@H](C)C(=O)C=C[C@@]45C[C@@]35CC[C@]12C)[C@@H](C)COC(=O)CCN(CC)CC [Compound 66, 26-deacetyl-neoboutomellerone 26-N-diethyl-β-alaninate] | 9 | 2 | 13 | – | –
11 | C=C(C(=O)[C@H](OC(C)=O)[C@@H](C)[C@H]1[C@@H](OC(C)=O)C[C@@]2(C)[C@@H]3CC[C@H]4[C@H](C)C(=O)C=C[C@@]45C[C@@]35CC[C@]12C)[C@@H](C)COC(=O)Nc1ccc(N(C)C)cc1 [Compound 25, 26-N-(4-N,N-dimethylaniline)carbamate-neoboutomellerone] | 51 | 60 | 49 | 19 | –
12 | C=C(C(=O)[C@H](OC(=O)CCl)[C@@H](C)[C@H]1[C@@H](OC(C)=O)C[C@@]2(C)C3CCC4[C@H](C)C(=O)C=C[C@@]45C[C@@]35CC[C@]12C)[C@@H](C)COC(C)=O (some centres unmarked) [Compound 61, 22-chloroacetyl-26-acetyl-neoboutomellerone] | 21 | 6 | 64 | 23 | –
13 | C=C(C(=O)[C@H](O)[C@@H](C)[C@H]1[C@@H](OC(C)=O)C[C@@]2(C)C3CCC4[C@H](C)C(=O)C=C[C@@]45C[C@@]35CC[C@]12C)[C@@H](C)COC(=O)CNC(=O)OC(C)(C)C (some centres unmarked) [Compound 58, 22-deacetyl-neoboutomellerone 26-N-Boc-glycinate] | 46 | 10 | 8 | – | –
14 | C=C(C(=O)[C@H](OC(C)=O)[C@@H](C)[C@H]1[C@@H](OC(C)=O)C[C@@]2(C)[C@@H]3CC[C@H]4[C@H](C)C(=O)CC[C@@]45C[C@@]35CC[C@]12C)[C@@H](C)CO [Compound 11, 1,2-dihydro-neoboutomellerone] | 45 | 48 | 1 | – | –
15 | C=C(C(=O)[C@H](O)[C@@H](C)[C@H]1[C@@H](OC(C)=O)C[C@@]2(C)[C@@H]3CC[C@H]4[C@H](C)C(=O)CC[C@@]45C[C@@]35CC[C@]12C)[C@@H](C)CO [Compound 14, 1,2-dihydro-22-deacetyl-neoboutomellerone] | 10 | 77 | 1 | – | –
